Measured values from patent publication US5747235A, “Silver halide light sensitive emulsion layer having enhanced photographic sensitivity” (Eastman Kodak Company, priority 1996, dated 1998).
Counter-ions that a name gives are not always drawn.

Assays:
[1] = Example 6: spectral sensitivity, wedge spectrographic exposure, emulsion T-2; details: dye II 0.86 x10^-3, dyed control=100
Experimental: (§1) Additional testing was carried out to determine the response of the coatings described in Table III to a spectral exposure. Each of the coating strips was exposed for 0.1 sec on a wedge spectrographic instrument that covers the wavelength range from 400 to 750 nm. The instrument contains a tungsten light source and a step tablet ranging in density from 0 to 3 density units in 0.3 density steps. After developing exposed strips for 6 min in Kodak Rapid X-ray Developer (KRX), speed was read at 10 nm wavelength intervals at a density of 0.3 above fog. Correction for the instrument's variation in spectral irradiance with wavelength was done with a computer and a plot of log sensitivity vs. wavelength was generated. For this exposure, for each dye used, the relative sensitivity was set equal to 100 for the control coating with no fragmentable two-electron donor compound added.
The chemically sensitized AgErI tabular emulsion T-2 as described in Example 3 was used to prepare the experimental coating variations listed in Table VI, comparing fragmentable electron donating compounds PMT-1 and PMT-2 that contain a phenylmercaptotetrazole as the silver halide adsorbing group. For some of the experimental variations listed in Table VI the red sensitizing dye D-II was added from methanol solution to the emulsion at 40° C. after the chemical sensitization. The fragmentable electron donating compounds were then added to the emulsion and coatings prepared and tested for sensitivity at 365 nm and for spectral sensitivity as described in Example 3.

[2] = Example 12: photographic sensitivity and fog, color format, blue sensitized emulsion T-2; details: for Photographic Sensitivity SWR2B: control=100
Experimental: The AgBrI tabular silver halide emulsion T-2 from Example 3 was optimally chemically and spectrally sensitized by adding NaSCN, 1.07 mmole of the blue sensitizing dye D-I per mole of silver, Na3 Au(S2 O3)2 ·2H2 O, Na2 S2 O3 ·5H2 O, and a benzothiazolium finish modifier and then subjecting the emulsion to a heat cycle to 65° C. The hydroxybenzene, 2,4-disulfocatechcol (HB3) at a concentration of 13×10^-3 mole/mole Ag was added to the emulsion melt before the start of the chemical sensitization procedure. This chemically sensitized emulsion was then used to prepare the experimental coating variations given in Table X. For all the variations in Table X, the antifoggant and stabilizer tetraazaindene (TAI) was added to the emulsion melt in an amount of 1.75 g/mole Ag before any further addenda. The fragmentable two-electron donors S-3, S-9, S-6, or S-8 were then added to the emulsion melt.
The melts were prepared for coating by adding additional water, deionized gelatin and coating surfactants. Coatings were prepared by combining the emulsion melts with a melt containing deionized gelatin and an aqueous dispersion of the cyan-forming color coupler CC-1 and coating the resulting mixture on acetate support. The final coatings contained Ag at 0.81 g/m^2, coupler at 1.61 g/m^2, and gelatin at 3.23 g/m^2. The coatings were overcoated with a protective layer containing gelatin at 1.08 g/m^2, coating surfactants, and a bisvinylsulfonylmethyl ether as a gelatin hardening agent. The structure of the color coupler CC-1 is given below: [drawing 120]
For photographic evaluation, each of the coating strips was exposed for 0.01 sec to a 3000K color temperature tungsten lamp filtered to give an effective color temperature of 5500K and further filtered through a Kodak Wratten filter number 2B, and a step wedge ranging in density from 0 to 4 density units in 0.20 density steps. This exposure gives light absorbed mainly by the blue sensitizing dye. The exposed film strips were developed for 31/4 minutes in Kodak C-41 color developer. SWR2B, relative sensitivity for this filtered exposure, was evaluated at a cyan density of 0.15 units above fog.
The AgBrI tabular emulsion T-2 as described in Example 3 was sensitized as described in Example 10 except that the hydroxybenzene HB3 was added at the completion of the chemical sensitization procedure. For all the variations in Table XII, the antifoggant and stabilizer tetraazaindene (TAI) was added to the emulsion melt in an amount of 1.75 g/mole Ag before any further addenda. The fragmentable electron donors PMT-1 or PMT-2 were then added to the emulsion melt. These compounds contain a phenylmercaptotetrazole as the silver halide adsorbing group. The melts were then coated and tested as described in Example 10.

[3] = Example 8: spectral sensitivity, cubic emulsion C-1; details: dye II 0.44 x10^-3, dyed control=100
Experimental: as §1
(§2) Two cubic emulsions with uniform halide composition were precipitated using deionized gelatin. Emulsion C-1 was a AgErI emulsion with a 3% I content and a cubic edge length of 0.47 μm and emulsion C-2 was an AgBr emulsion with a cubic edge length of 0.52 μm. The emulsions were sulfur sensitized by adding 1,3-dicarboxymethyl-1,3-dimethyl-2-thiourea at 40° C.; the temperature was then raised to 60° C. at a rate of 5° C./3 min and the emulsions held for 20 min before cooling to 40° C. The amounts of the sulfur sensitizing compound used were 1.0×10^-5 mole/mole Ag for emulsion C-1, and 6.0×10^-6mole/mole Ag for emulsion C-2. These experimental coating variations contained the hydroxybenzene, 2,4-disulfocatechcol (HB3) at a concentration of 13 mmole/mole Ag, added to the melt before the addition of any further compounds. Some of the variations were then dyed with the sensitizing dye D-II, added from methanol solution. The fragmentable electron donor compounds were then added to the emulsion melts at 40° C. and coatings were prepared and tested as described in Example 1 except that the additional gelatin used to prepare the coatings described in Table VIII was deionized gelatin. Also, the dyed coatings were tested for their response to a spectral exposure as described in Example 3.

[4] = Example 8: photographic speed and fog, 365 nm exposure, cubic emulsion C-2; set-up: Fog: unit not given here
Experimental: For photographic evaluation, each of the coating strips was exposed for 0.1 sec to a 365 nm emission line of a Hg lamp filtered through a Kodak Wratten filter number 18A and a step wedge ranging in density from 0 to 4 density units in 0.2 density steps. The exposed film strips were developed for 6 min in Kodak Rapid X-ray Developer (KRX). S365, relative sensitivity at 365 nm, was evaluated at a density of 0.2 units above fog.
as §2

[5] = Example 8: spectral sensitivity, cubic emulsion C-2; details: dye II 0.40 x10^-3, dyed control=100
Experimental: as §1, §2

[6] = 0.16 x10^-3 mol/mol Ag, no dye, control=100

CC(C(=O)O)N(CCC(=O)Nc1cccc(-n2nnnc2S)c1)c1ccccc1 (stereo not shown) [PMT-2]
Sλ ([1]; 0.0005 x10^-3 mole/mole Ag): 123
Sλ ([1]; 0.0016 x10^-3 mole/mole Ag): 145
Sλ ([1]; 0.005 x10^-3 mole/mole Ag): 151
Fog ([2]; 0.5 x10^-6 mol/mol Ag): 0.09
Photographic Sensitivity SWR2B ([2]; 0.5 x10^-6 mol/mol Ag): 141
Fog ([2]; 1.4 x10^-6 mol/mol Ag): 0.10
Photographic Sensitivity SWR2B ([2]; 1.4 x10^-6 mol/mol Ag): 166
Fog ([2]; 4.5 x10^-6 mol/mol Ag): 0.16
Photographic Sensitivity SWR2B ([2]; 4.5 x10^-6 mol/mol Ag): 191

Cc1ccc(N(CCC(=O)Nc2cccc(-n3nnnc3S)c2)C(C)C(=O)O)cc1 (stereo not shown) [PMT-1]
Sλ ([1]; 0.0006 x10^-3 mole/mole Ag): 115
Sλ ([1]; 0.0017 x10^-3 mole/mole Ag): 145
Sλ ([1]; 0.0055 x10^-3 mole/mole Ag): 126
Fog ([2]; 0.5 x10^-6 mol/mol Ag): 0.09
Photographic Sensitivity SWR2B ([2]; 0.5 x10^-6 mol/mol Ag): 138
Fog ([2]; 1.5 x10^-6 mol/mol Ag): 0.15
Photographic Sensitivity SWR2B ([2]; 1.5 x10^-6 mol/mol Ag): 166

CCSCCN(c1ccccc1)C(C)C(=O)O (stereo not shown) [Compound S-9, N-(Phenyl)-N-(2-thioethyl-ethyl)alanine sodium salt]
Sλ ([3]; 0.005 x10^-3 mol/mol Ag): 145
Sλ ([3]; 0.016 x10^-3 mol/mol Ag): 178
Fog ([4]; 0.005 x10^-3 mol/mol Ag, dye II 0.40 x10^-3): 0.16
S365 ([4]; 0.005 x10^-3 mol/mol Ag, dye II 0.40 x10^-3, dyed control 76): 141
Fog ([4]; 0.016 x10^-3 mol/mol Ag, dye II 0.40 x10^-3): 0.19
S365 ([4]; 0.016 x10^-3 mol/mol Ag, dye II 0.40 x10^-3, dyed control 76): 166
Fog ([4]; 0.05 x10^-3 mol/mol Ag, no dye): 0.06
S365 ([4]; 0.05 x10^-3 mol/mol Ag, no dye, control=100): 204
Fog ([4]; 0.16 x10^-3 mol/mol Ag, no dye): 0.06
S365 [4, 6]: 209
Sλ ([5]; 0.005 x10^-3 mol/mol Ag): 159
Sλ ([5]; 0.016 x10^-3 mol/mol Ag): 195

CCSCCN(c1ccc(C(=O)O)cc1)C(C)C(=O)O (stereo not shown) [Compound S-11]
Sλ ([3]; 0.05 x10^-3 mol/mol Ag): 151
Sλ ([3]; 0.16 x10^-3 mol/mol Ag): 178
Fog ([4]; 0.05 x10^-3 mol/mol Ag, dye II 0.40 x10^-3): 0.10
S365 ([4]; 0.05 x10^-3 mol/mol Ag, dye II 0.40 x10^-3, dyed control 76): 145
Fog ([4]; 0.16 x10^-3 mol/mol Ag, dye II 0.40 x10^-3): 0.14
S365 ([4]; 0.16 x10^-3 mol/mol Ag, dye II 0.40 x10^-3, dyed control 76): 166
Fog ([4]; 0.16 x10^-3 mol/mol Ag, no dye): 0.06
S365 [4, 6]: 200
Fog ([4]; 0.50 x10^-3 mol/mol Ag, no dye): 0.06
S365 ([4]; 0.50 x10^-3 mol/mol Ag, no dye, control=100): 209
Sλ ([5]; 0.05 x10^-3 mol/mol Ag): 159
Sλ ([5]; 0.16 x10^-3 mol/mol Ag): 186
